The assay has as its target T1, FXR (Homo sapiens, UniProt Q96RI1).
T1 construct: using a full length FXR on a natural response element; expressed in transfected cells
T1 sequence (Q96RI1 1-486): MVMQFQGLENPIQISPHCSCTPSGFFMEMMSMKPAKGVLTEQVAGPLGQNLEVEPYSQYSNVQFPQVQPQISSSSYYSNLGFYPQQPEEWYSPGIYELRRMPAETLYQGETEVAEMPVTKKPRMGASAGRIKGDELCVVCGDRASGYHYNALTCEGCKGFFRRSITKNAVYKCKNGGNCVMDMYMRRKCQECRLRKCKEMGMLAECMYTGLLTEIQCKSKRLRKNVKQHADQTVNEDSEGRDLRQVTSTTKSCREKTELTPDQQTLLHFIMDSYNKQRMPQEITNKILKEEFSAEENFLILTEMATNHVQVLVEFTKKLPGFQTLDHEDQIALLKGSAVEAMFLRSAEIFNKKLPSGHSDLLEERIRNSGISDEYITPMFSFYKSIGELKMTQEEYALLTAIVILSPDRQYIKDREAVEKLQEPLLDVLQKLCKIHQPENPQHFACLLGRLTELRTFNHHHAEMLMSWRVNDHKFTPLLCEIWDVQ
Nature of the assay: cell-based FXR transcription assay, FXR responsive promoter linked to luciferase reporter. To be noted: for FXR activation, in words: cell-based reporter assay, SAR discussion; for EC50 / RE^a: cell-based FXR reporter assay; for EC50: determined with Prism 3.0; for RE^a: footnote a not given. The source says:
In addition to ensuring that only cell permeable compounds were selected for further optimization, this approach allows for the detection of FXR activation in a natural system (i.e., correct folding of the protein and in the presence of a complete compliment of co-activators and co-repressors).
The feasibility of creating high throughput screens (HTS) for ORs was explored using FXR as a candidate orphan receptor (OR) with a known activator, chenodeoxycholic acid (CDCA) as a ligand. The screen is based on the co-transfection of a full-length receptor with the reporter vector containing a natural hormone response element under a minimal eukaryotic promoter. […] Using this 384-well format, the high throughput screening (HTS) approach to FXR as a candidate OR was employed. […] A central question in the feasibility studies is whether this library is suitable for screening for nuclear receptor ligands. Samples of this library were first reformatted into a 384-well format and then subjected to the FXR cell-based assays described above and assessed for FXR-mediated transcriptional activity. Cells were exposed to approximately 10 μM of sample for 18 hrs prior to washing and luciferase analysis.
EC50 values were determined with Prism 3.0 software via the activity of the subject compound in the previously described cell based assay.
For orientation: In a reporter assay the amount or activity of a reporter protein is the signal.

“Also recorded” adds a separate entry of the source.

In the case of `COC(=O)/C=C/c1cccc(N(Cc2ccc3c(c2OC)OC(C)(C)[C@@H](O)[C@H]3O)C(=O)c2ccccc2)c1` (relative stereo) [Compound 93], the “FXR activation, in words” value is reported as “did not improve the activity”. With `COc1c(CN(C(=O)C2CC2)c2ccccc2)ccc2c1OC(C)(C)C=C2` [Compound 26], the “FXR activation, in words” value is listed as “among the most active at this stage”.

`COc1c(CN(C(=O)C2CCCCC2)c2ccccc2)ccc2c1OC(C)(C)C=C2` [Compound 27]: the “FXR activation, in words” value is “among the most active at this stage”. On the same count and under the same terms, then `COC(=O)/C=C/c1cccc(N(Cc2ccc3c(c2OC)OC(C)(C)C=C3)C(=O)C2CC2)c1` [Compound 29], with “substantially better activator of FXR than compound 26; also recorded: capable of activating FXR to a significant extent”. Same read-out and setting: the result for `CCOC(=O)/C=C/c1cccc(N(Cc2ccc3c(c2OC)OC(C)(C)C=C3)C(=O)C2CC2)c1` [Compound 30] reads “inactive”.

Take `COC/C=C/c1cccc(N(Cc2ccc3c(c2OC)OC(C)(C)C=C3)C(=O)C2CC2)c1` [Compound 33]: the “FXR activation, in words” value is given as “capable of activating FXR to a significant extent”. `COc1c(CN(C(=O)C2CC2)c2cccc(/C=C/C#N)c2)ccc2c1OC(C)(C)C=C2` [Compound 34]: the “FXR activation, in words” value is “inactive”.

Regarding `CNC(=O)/C=C/c1cccc(N(Cc2ccc3c(c2OC)OC(C)(C)C=C3)C(=O)C2CC2)c1` [Compound 38], the “FXR activation, in words” value was “inactive”. In the case of `COC(=O)/C=C/c1ccc(N(Cc2ccc3c(c2OC)OC(C)(C)C=C3)C(=O)C2CC2)cc1` [Compound 53], the “FXR activation, in words” value is “does not activate FXR”. One may read the EC50 as the concentration giving half of the maximal effect. As to `COC(=O)/C=C/c1cccc(N(Cc2ccc3c(c2OC)OC(C)(C)C=C3)C(=O)C2CCCCC2)c1` [Compound 65], it took 3.58 nM to reach a half-maximal effect (EC50) and the “RE^a” value was 0.40. For the compound `COC(=O)C=Cc1cccc(N(Cc2ccc3c(c2OC)OC(C)(C)C=C3)C(=O)c2ccccc2)c1` [Compound 68], the “RE^a” value worked out at 0.83.

On to `COC(=O)/C=C/c1cccc(N(Cc2ccccc2)Cc2ccc3c(c2OC)OC(C)(C)C=C3)c1` [Compound 78], for which the “FXR activation, in words” value was “inactive”. On the same count and under the same terms, then `COC(=O)/C=C/c1cccc(N(C)Cc2ccc3c(c2OC)OC(C)(C)C=C3)c1` [Compound 79], with “inactive”; and `COC(=O)/C=C/c1cccc(N(Cc2ccc3c(c2OC)OC(C)(C)C=C3)S(=O)(=O)c2ccc(C)cc2)c1` [Compound 82], with “inactive”; and `COC(=O)/C=C/c1cccc(N(Cc2ccc3c(c2OC)OC(C)(C)C=C3)C(=S)C2CC2)c1` [Compound 83], with “inactive”. For `COC(=O)/C=C/c1cccc(N(Cc2ccc3c(c2OC)OC(C)(C)C=C3)C(=S)NCc2ccccc2)c1` [Compound 84], the “FXR activation, in words” value was “inactive”. For the compound `COC(=O)/C=C/c1cccc(N(Cc2ccc3c(c2OC)OC(C)(C)C=C3C(=O)O)C(=O)c2ccccc2)c1` [Compound 86], the “FXR activation, in words” value is listed as “did not improve the activity”. As for `COC(=O)C=Cc1cccc(N(Cc2ccc3c(c2OC)OC(C)(C)C(O)C3O)C(=O)c2ccccc2)c1` (centres unmarked) [Compound 94], the “FXR activation, in words” value was “did not improve the activity”. The same measure, in the same setting: the result for `COC(=O)C=Cc1cccc(N(Cc2ccc3c(c2OC)OC(C)(C)C(O)C3Sc2ccccc2)C(=O)c2ccccc2)c1` (centres unmarked) [Compound 98] reads “did not improve the activity”.

As for `COC(=O)C=Cc1cccc(N(Cc2ccc3c(c2OC)OC(C)(C)C(O)C3N2CCCCC2)C(=O)c2ccccc2)c1` (centres unmarked) [Compound 100], the “FXR activation, in words” value is “did not improve the activity”. Turning to `COC(=O)/C=C/c1cccc(N(Cc2ccc3c(c2OC)OC(C)(C)C2C3C2(Cl)Cl)C(=O)c2ccccc2)c1` (centres unmarked) [Compound 102], the “RE^a” value was determined as 0.64. Still for that read-out and setting: then `COC(=O)C=Cc1cccc(N(Cc2ccc(C=CC(=O)O)cc2)C(=O)C2CCCCC2)c1` [Compound 104], with 0.08; and `COC(=O)/C=C/c1cccc(N(Cc2ccc(/C=C/C(=O)OC(C)(C)C)cc2)C(=O)C2CCCCC2)c1` [Compound 105], with 2.12. With `COC(=O)/C=C/c1cccc(N(Cc2cccc(/C=C/C(=O)OC(C)(C)C)c2)C(=O)C2CCCCC2)c1` [Compound 107], the “FXR activation, in words” value was “only micromolar potency”. The same measure, in the same setting: the result for `COC(=O)/C=C/c1cccc(N(Cc2ccccc2/C=C/C(=O)OC(C)(C)C)C(=O)C2CCCCC2)c1` [Compound 109] reads “only micromolar potency”. Turning to `COC(=O)/C=C/c1cccc(N(Cc2ccccc2)C(=O)C2CCCCC2)c1` [Compound 110], the “RE^a” value was 0.09. The same measure, in the same setting: then `COC(=O)/C=C/c1cccc(N(Cc2ccc(Br)cc2)C(=O)C2CCCCC2)c1` [Compound 112], with 0.28; and `COC(=O)C=Cc1cccc(N(Cc2cccc(Br)c2)C(=O)C2CCCCC2)c1` [Compound 113], with 0.11. Same read-out and setting: the result for `COC(=O)C=Cc1cccc(N(Cc2ccccc2Br)C(=O)C2CCCCC2)c1` [Compound 114] reads 0.11; that for `COC(=O)/C=C/c1cccc(N(Cc2cccc(OC)c2)C(=O)C2CCCCC2)c1` [Compound 115], 0.11. Consider `COC(=O)/C=C/c1cccc(N(Cc2cccc(C(F)(F)F)c2)C(=O)C2CCCCC2)c1` [Compound 117], for which the “RE^a” value worked out at 0.12. The same measure, in the same setting: the result for `COC(=O)/C=C/c1cccc(N(Cc2cc(OC)cc(OC)c2)C(=O)C2CCCCC2)c1` [Compound 118] reads 0.11; that for `COC(=O)C=Cc1cccc(N(Cc2ccc(C=Cc3ccc(OC)cc3)cc2)C(=O)C2CCCCC2)c1` [Compound 122], 1.67; that for `COC(=O)C=Cc1cccc(N(Cc2ccc(C=Cc3ccc(C(C)(C)C)cc3)cc2)C(=O)C2CCCCC2)c1` [Compound 123], 0.29.

Regarding `COC(=O)/C=C/c1cccc(N(Cc2ccc(-c3ccccc3)cc2)C(=O)C2CCCCC2)c1` [Compound 124], the “RE^a” value came out at 0.71. With `COC(=O)/C=C/c1cccc(N(Cc2ccc(-c3ccc(SC)cc3)cc2)C(=O)C2CCCCC2)c1` [Compound 125], the “RE^a” value stood at 1.74 and the “FXR activation, in words” value is “excellent activity”. As to `COC(=O)/C=C/c1cccc(N(Cc2ccc(-c3cc(Cl)cc(Cl)c3)cc2)C(=O)C2CCCCC2)c1` [Compound 126], the “RE^a” value amounted to 0.95.

Turning to `COC(=O)/C=C/c1cccc(N(Cc2ccc(-c3cccc(C(C)=O)c3)cc2)C(=O)C2CCCCC2)c1` [Compound 127], the “RE^a” value turned out to be 1.30. Still for that read-out and setting: then `COC(=O)C=Cc1cccc(N(Cc2ccc(-c3ccc(C)s3)cc2)C(=O)C2CCCCC2)c1` [Compound 128], with 1.78; and `COC(=O)C=Cc1cccc(N(Cc2ccc(-c3ccc(C(C)=O)s3)cc2)C(=O)C2CCCCC2)c1` [Compound 129], with 1.48. Still for that read-out and setting: the result for `COC(=O)/C=C/c1cccc(NC(=O)C2CCCCC2)c1` [Compound 132] reads 0.09.

In the case of `CCOC(=O)C=Cc1cccc(N(Cc2ccc(C=CC(=O)OC(C)(C)C)cc2)C(=O)C2CCCCC2)c1` [Compound 133], it took 256 nM to reach a half-maximal effect (EC50); the “RE^a” value amounted to 2.07; the “FXR activation, in words” value is “marked decline in potency”. With `CC(C)(C)OC(=O)C=Cc1ccc(CN(C(=O)C2CCCCC2)c2cccc(C=CC(=O)OC(C)(C)C)c2)cc1` [Compound 134], the “RE^a” value amounted to 1.06 and the “FXR activation, in words” value is given as “marked decline in potency”. As to `CC(C)(C)OC(=O)C=Cc1ccc(CN(C(=O)C2CCCCC2)c2cccc(C=CC(N)=O)c2)cc1` [Compound 135], the “RE^a” value is 0.50 and the “FXR activation, in words” value is on record as “marked decline in potency”. For `COCC=Cc1cccc(N(Cc2ccc(C=CC(=O)OC(C)(C)C)cc2)C(=O)C2CCCCC2)c1` [Compound 136], the “RE^a” value came out at 1.68. On the same count and under the same terms, then `CCOCC=Cc1cccc(N(Cc2ccc(C=CC(=O)OC(C)(C)C)cc2)C(=O)C2CCCCC2)c1` [Compound 137], with 1.74. In the case of `CC(C)(C)OC(=O)C=Cc1ccc(CN(C(=O)C2CCCCC2)c2cccc(C=CCOc3ccccc3)c2)cc1` [Compound 138], the “RE^a” value is on record as 0.45. `COC(=O)CCc1cccc(N(Cc2ccc(/C=C/C(=O)OC(C)(C)C)cc2)C(=O)C2CCCCC2)c1` [Compound 139]: the “RE^a” value is “RE^a = 1.38” and the “FXR activation, in words” value was “only a two-fold decrease in potency”. Regarding `COC(=O)C=Cc1cccc(N(Cc2ccc(C=CC(=O)OC(C)(C)C)cc2)C(=O)C2CC2)c1` [Compound 140], the “RE^a” value is 1.68.

The record behind these values is US7671085B2, “Non-steroidal farnesoid X receptor modulators and methods for the use thereof” (The Salk Institute for Biological Studies, priority 2002, dated 2010).
